This is an account of results in publication PMC9734143, “An efficient human stem cells derived cardiotoxicity testing platform for testing oncotherapeutic analogues of quercetin and cinnamic acid” (Scientific Reports, 2022).

Series [1] has as its system H9C2 cells. Nature of the series: Fura-2AM intracellular calcium assay in H9C2 cells. It counts as cell-based, rat. The settings on record: 24 h; analogues at Vero IC50 concentration. Here is the method: (§1) Intracellular calcium flux was measured using the fluorescent radiometric Ca^2+ indicator, Fura-2 acetoxymethyl ester (Fura-2, AM; Invitrogen, Carlsbad, USA). Briefly, after 24 h of treatment, Fura-2AM (1 μmol/L) was added to cells and incubated for 30 min at 37 °C. The intracellular calcium flux was measured at excitation of 340 nm and 380 nm and emission of 510 nm using a multimode plate reader.
(In general: Calcium flux is commonly read through the fluorescence of an indicator in the cells.)

Series [2] relates to Vero, a non-cancerous cell line. The arrangement: method as in PMID 25824412, PMID 30687400. The note with it: read-out: IC50 in Vero cells; cited from earlier work.
In series [3] the test system is WJMSC-derived cardiomyocytes (WJCM). As to the kind of experiment: LDH release assay in WJCM. In kind it is cell-based, human. The settings on record: 24 h; analogues at Vero IC50 concentration. On the procedure: (§2) The experiment was performed as per the manufacturer’s protocol. Absorbance was taken at 490 nm and 680 nm (background signal) using multimode plate reader. LDH activity was calculated by subtracting absorbance taken at 680 nm from 490 nm.
(Release of lactate dehydrogenase indicates damage to the cell membrane.)

Series [4] shares this test system. Nature of the series: MTT and CCK-8 cell viability assays in WJCM. It counts as cell-based, human. The settings on record: 24 h; analogues at Vero IC50 concentration; Dox 1 µM. Here is the method: (§3) Similarly, the toxicity of these compounds in terms of the viability of cells was estimated by using the MTT assay and cell counting kit-8 (CCK-8) assay. For MTT assay, after 24 h of treatments, MTT (5 mg/ml of PBS; HiMedia, India) was added, and cells were incubated for 2 h at 37 °C. The formazan crystals that were formed after the incubation were dissolved using dimethyl sulfoxide (DMSO). For the CCK-8 assay, 10 μL of CCK-8 solution (Boster Biological Technology, Pleasanton, CA, USA) was added to each well and incubated for 2 h at 37 °C. The absorbance for MTT and CCK-8 assay was measured at 570 nm and 450 nm respectively using the EnSight™ Multimode plate reader (Perkin Elmer, MA, USA)[49],[50].
In general terms: Tetrazolium assays rely on reduction of a dye to a coloured formazan, in cell work by metabolically active cells.

For series [5], the system named is H9C2 cells. Nature of the series: LDH release assay in H9C2 cells. The settings on record: 24 h; analogues at Vero IC50 concentration. In kind it is cell-based, rat. Here is the method:
as §2

Series [6] deals with cardiac markers (NKX2.5, GATA4, Troponin I, Troponin T, MHCα) in WJCM. Nature of the series: qRT-PCR gene expression of cardiac-specific markers in WJCM. The settings on record: qRT-PCR; analogues at Vero IC50 concentration. On the procedure: Differentiation of WJMSCs was done using a proprietary combination of DNMT and HDAC inhibitors in KO-DMEM/F-12 containing 10% FBS for 48 h. Induction media was replaced with culture media i.e. KO-DMEM/F-12 with 1X GlutaMAX and, 10% FBS after 48 h for 7 days[23].
WJMSC-derived cardiomyocytes (WJCM) and H9C2 were treated with NMJ and QMJ analogues for 24 h. […] To illustrate the toxicity specific to cardiac cells and not a general cytotoxicity, WJMSCs were treated with positive cardiotoxic drugs.
Total ribonucleic acid (RNA) was isolated using RNAiso Plus (TaKaRa, Shiga, Japan) followed by cDNA conversion using PrimeScript™ 1st strand cDNA synthesis kit (TaKaRa, Shiga, Japan). Quantitative reverse transcriptase-polymerase chain reaction (qRT-PCR) was performed by using TB Green™ Premix Ex Taq™ II (Tli RNase H Plus; TaKaRa, Shiga, Japan) for cardiac markers in a QuantStudio™ 5 real-time PCR Systems (Applied Biosystems, USA). All the primers were purchased from Sigma Aldrich, Bangalore, India (Table 1). The relative gene expression was calculated using 2^-∆∆CT and GAPDH, a housekeeping gene was used as endogenous control[52],[53].

The test system of series [7] is WJMSC-derived cardiomyocytes (WJCM). Nature of the series: Griess assay (NO release) in WJCM. It counts as cell-based, human. The settings on record: 24 h; analogues at Vero IC50 concentration. Here is the method: (§4) Nitric oxide (NO) release was estimated using the Griess assay. Briefly, after 24 h of drug treatment, Griess reagent (Sigma Aldrich, MO, USA) was added to cells in equal volume and incubated for 30 min in the dark, and absorbance was taken at 540 nm via multimode plate reader.

Series [8] relates to cardiomyocytes (WJCM and H9C2 cells). As to the kind of experiment: Cardiotoxicity across parameters as summarised in the discussion (WJCM and H9C2 cells). In kind it is cell-based, human and rat. The note with it: for overall cardiotoxicity across the parameters analyzed: analogues at Vero IC50 concentration, 24 h; for active mitochondria status in treated cardiomyocytes / cytotoxic effect against cardiomyocytes by MTT, CCK-8 and LDH assay / intracellular calcium level in treated cardiomyocytes: discussion summary, cell model not specified. From the text:
We investigated the effects of 3-hydroxyflavone (QMJ-2, QMJ-5, and QMJ-6) and cinnamyl sulfonamide-hydroxamate (NMJ-1, NMJ-2, NMJ-3) in WJCM and H9C2 cells using the concentrations reported for non-cancerous Vero cells. The prerequisite for any synthesized drug molecules is that they should be nontoxic to cardiac cells.

Series [9] relates to WJMSC-derived cardiomyocytes (WJCM). Nature of the series: Intracellular ROS assay in WJCM. It counts as cell-based, human. The settings on record: 24 h; analogues at Vero IC50 concentration. On the procedure:
(§5) Generation of ROS was detected using Fluorometric intracellular ROS kit (Sigma Aldrich, MO, USA) as per manufacturer’s protocol. Fluorescence was measured at excitation and emission of 650 nm and 675 nm respectively via multimode plate reader[50],[51].

In series [10] the test system is H9C2 cells. As to the kind of experiment: Griess assay (NO release) in H9C2 cells. It counts as cell-based, rat. The settings on record: 24 h; analogues at Vero IC50 concentration. On the procedure: as §4
Series [11] concerns WJMSC-derived cardiomyocytes (WJCM). As to the kind of experiment: Fura-2AM intracellular calcium assay in WJCM. It counts as cell-based, human. The note with it: 24 h; analogues at Vero IC50 concentration. On the procedure:
as §1

Series [12] relates to H9C2 cells. As to the kind of experiment: TMRE mitochondrial membrane potential assay in H9C2 cells. It counts as cell-based, rat. The settings on record: 24 h; analogues at Vero IC50 concentration. On the procedure: (§6) Mitochondrial membrane potential of the cells after drug treatment was detected using tetramethylrhodamine ethyl ester dye (TMRE; Molecular Probes, CA, USA). The cells were incubated with 0.3 µM TMRE dye and incubated at 37 °C for 30 min in dark. Fluorescence intensity of TMRE was measured at excitation and emission of 549 nm and 574 nm respectively via a multimode plate reader.

Series [13] concerns H9C2 cells. Nature of the series: Intracellular ROS assay in H9C2 cells. The note with it: 24 h; analogues at Vero IC50 concentration. It counts as cell-based, rat. Here is the method: as §5
The subject of series [14] is H9C2 cells. Nature of the series: MTT cell viability assay in H9C2 cells. In kind it is cell-based, rat. The note with it: 24 h; analogues at Vero IC50 concentration. Here is the method:
as §3

Series [15] relates to WJMSC-derived cardiomyocytes (WJCM). As to the kind of experiment: TMRE mitochondrial membrane potential assay in WJCM. It counts as cell-based, human. The note with it: 24 h; analogues at Vero IC50 concentration. On the procedure:
as §6

A word on the IC50: it is the concentration that inhibits the measured activity by half. Consider `O=C(/C=C/c1ccc(S(=O)(=O)NCCc2cccs2)cc1)NO` [NMJ-2], for which the “intracellular Ca2+ accumulation in H9C2 cells (Fura-2AM)” value in the series with H9C2 cells [1] is on record as “decrease in Ca^2+ accumulation”. The IC50 in series [2] was 8.2 µM. Further, the “LDH release in WJCM” value in series [3] is “increase in LDH”. The “toxicity / cell viability in WJCM (MTT, CCK-8), result in words” value in [4] is reported as “less toxic”. The “LDH release in H9C2 cells” value in the series with H9C2 cells [5] is on record as “increase in LDH”. Further, in series [6], the “GATA4 gene expression in WJCM” value is “marked upregulation”, the “MHCα gene expression in WJCM” value is listed as “marked upregulation”, the “NKX2.5 gene expression in WJCM” value was “significant increase” and the “Troponin I gene expression in WJCM” value was “marked upregulation”. The “Troponin T gene expression in WJCM, result in words” value in series [6] was “milder increase”. The “NO level in WJCM (Griess), result in words” value in series [7] is recorded as “elevated NO levels”. For the same compound, in series [8], the “overall cardiotoxicity across the parameters analyzed” value is on record as “do not display significant cardiotoxicity”; the “active mitochondria status in treated cardiomyocytes” value was “remains unaffected”; the “cytotoxic effect against cardiomyocytes by MTT, CCK-8 and LDH assay” value is on record as “no cytotoxic effect”; the “intracellular calcium level in treated cardiomyocytes” value is on record as “remained low”. Also, the “ROS activity in WJCM” value in series [9] was “lowered ROS activity”. For the same compound, the “NO level in H9C2 cells (Griess)” value in the series with H9C2 cells [10] is “elevated NO levels”. For the same compound, the “intracellular Ca2+ accumulation in WJCM (Fura-2AM)” value in series [11] is on record as “decrease in Ca^2+ accumulation”. The “mitochondrial membrane potential in H9C2 cells (TMRE)” value in the series with H9C2 cells [12] is “increased mitochondrial membrane potential”.

As for `COc1ccc2c(=O)c(O)c(-c3ccc(C)cc3)oc2c1` [QMJ-6, 3-Hydroxy-7-methoxy-2-(4-methylphenyl)-4H-1-benzopyran-4-one], the “ROS activity in H9C2 cells” value with H9C2 cells [13] is “lowered ROS activity”. For the same compound, the “intracellular Ca2+ accumulation in H9C2 cells (Fura-2AM)” value in the series with H9C2 cells [1] is reported as “decrease in Ca^2+ accumulation”. Besides, the half-maximal inhibitory concentration (IC50) in [2] is 153 µM. For the same compound, in [3], the “LDH release in WJCM” value is recorded as “no to little change”. Further, the “toxicity / cell viability in WJCM (MTT, CCK-8), result in words” value in [4] was “less toxic”. Further, in the series with H9C2 cells [5], the “LDH release in H9C2 cells” value is on record as “no to little change”. Further, in the series with H9C2 cells [14], the “viability of H9C2 cells (MTT), result in words” value is recorded as “increase in viability”. Also, the “mitochondrial membrane potential in WJCM (TMRE)” value in [15] was “increased mitochondrial membrane potential”. In [6], the “GATA4 gene expression in WJCM” value is “marked upregulation”, the “MHCα gene expression in WJCM” value is listed as “marked upregulation”, the “NKX2.5 gene expression in WJCM” value is recorded as “significant increase” and the “Troponin I gene expression in WJCM” value was “marked upregulation”. Moreover, the “Troponin T gene expression in WJCM, increase” value in series [6] is given as 8–10 fold. Moreover, in [8], the “overall cardiotoxicity across the parameters analyzed” value is given as “do not display significant cardiotoxicity”; the “active mitochondria status in treated cardiomyocytes” value is given as “remains unaffected”; the “cytotoxic effect against cardiomyocytes by MTT, CCK-8 and LDH assay” value is reported as “no cytotoxic effect”; the “intracellular calcium level in treated cardiomyocytes” value is listed as “remained low”. The “ROS activity in WJCM” value in series [9] is “lowered ROS activity”. Besides, the “NO level in H9C2 cells (Griess)” value with H9C2 cells [10] is “elevated NO levels”. In addition, the “intracellular Ca2+ accumulation in WJCM (Fura-2AM)” value in series [11] is reported as “decrease in Ca^2+ accumulation”. Moreover, in the series on H9C2 cells [12], the “mitochondrial membrane potential in H9C2 cells (TMRE)” value was “increased mitochondrial membrane potential”.
